Data reported in PubChem BioAssay AID2060616 (Molecular Pharmacology Branch, DTP, NCI, 2025).

Tested on: 377384-186-R-J1-PDC complex spheroid viability
Assay: Anticancer human tumor 377384-186-R-J1-PDC patient-derived pancreatic carcinoma cell line growth inhibition [CLK]
Conditions: for IC50: curve of first compound; for viability, T/C: stronger effect = lower value
Summary of the method: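 Multi-cell-type spheroids combined patient-derived tumor cells with HUVEC endothelial cells and human mesenchymal stem cells. Paired agents were dosed in half-log steps down from about clinical Cmax, or from 10 microM where Cmax was unknown.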

[1] = second compound 0.0316 µM, first compound 0.0316 µM
[2] = second compound 0.0316 µM, first compound 0.1 µM
[3] = second compound 0.0316 µM, first compound 0.316 µM
[4] = second compound 0.0316 µM, first compound 1 µM
[5] = second compound 0.0316 µM, first compound 3.16 µM
[6] = second compound 0.0316 µM, first compound 10 µM
[7] = second compound 0.1 µM, first compound 0.0316 µM
[8] = second compound 0.1 µM, first compound 0.1 µM
[9] = second compound 0.1 µM, first compound 0.316 µM
[10] = second compound 0.1 µM, first compound 1 µM
[11] = second compound 0.1 µM, first compound 3.16 µM
[12] = second compound 0.1 µM, first compound 10 µM
[13] = second compound 0.316 µM, first compound 0.0316 µM
[14] = second compound 0.316 µM, first compound 0.1 µM
[15] = second compound 0.316 µM, first compound 0.316 µM
[16] = second compound 0.316 µM, first compound 1 µM
[17] = second compound 0.316 µM, first compound 3.16 µM
[18] = second compound 0.316 µM, first compound 10 µM
[19] = second compound 1 µM, first compound 0.0316 µM
[20] = second compound 1 µM, first compound 0.1 µM
[21] = second compound 1 µM, first compound 0.316 µM
[22] = second compound 1 µM, first compound 1 µM
[23] = second compound 1 µM, first compound 3.16 µM
[24] = second compound 1 µM, first compound 10 µM
[25] = second compound 3.16 µM, first compound 0.0316 µM
[26] = second compound 3.16 µM, first compound 0.1 µM
[27] = second compound 3.16 µM, first compound 0.316 µM
[28] = second compound 3.16 µM, first compound 1 µM
[29] = second compound 3.16 µM, first compound 3.16 µM
[30] = second compound 3.16 µM, first compound 10 µM
[31] = second compound 10 µM, first compound 0.0316 µM
[32] = second compound 10 µM, first compound 0.1 µM
[33] = second compound 10 µM, first compound 0.316 µM
[34] = second compound 10 µM, first compound 1 µM
[35] = second compound 10 µM, first compound 3.16 µM
[36] = second compound 10 µM, first compound 10 µM
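Note: spheroids exposed to agents for 7 days before reading.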
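Throughout, for viability, T/C: luminescence signal used as a stand-in for viable cells.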

CC1(C)CCC(CN2CCN(c3ccc(C(=O)NS(=O)(=O)c4ccc(NCC5CCOCC5)c([N+](=O)[O-])c4)c(Oc4cnc5[nH]ccc5c4)c3)CC2)=C(c2ccc(Cl)cc2)C1 + CN1CCN(c2cc(C(=O)Nc3cc4cc(-c5cnn(C)c5)ccc4cn3)ccn2)CC1
IC50 (second compound 0.0316 µM): 5530 nM
IC50 (second compound 0.1 µM): 5250 nM
IC50 (second compound 0.316 µM): < 31.6 nM
IC50 (second compound 1 µM): < 31.6 nM
IC50 (second compound 3.16 µM): < 31.6 nM
IC50 (second compound 10 µM): < 31.6 nM
viability, T/C [1]: 96%
viability, T/C [2]: 97.6%
viability, T/C [3]: 102%
viability, T/C [4]: 115%
viability, T/C [5]: 89.7%
viability, T/C [6]: 8.02%
viability, T/C [7]: 95.7%
viability, T/C [8]: 101%
viability, T/C [9]: 89.8%
viability, T/C [10]: 92.7%
viability, T/C [11]: 83.8%
viability, T/C [12]: 7.17%
viability, T/C [13]: 24.6%
viability, T/C [14]: 27.9%
viability, T/C [15]: 27.9%
viability, T/C [16]: 21.6%
viability, T/C [17]: 20.4%
viability, T/C [18]: 3.98%
viability, T/C [19]: 1.15%
viability, T/C [20]: 1.09%
viability, T/C [21]: 1.14%
viability, T/C [22]: 1.04%
viability, T/C [23]: 1.22%
viability, T/C [24]: 1.79%
viability, T/C [25]: 0.38%
viability, T/C [26]: 0.8%
viability, T/C [27]: 0.43%
viability, T/C [28]: 0.54%
viability, T/C [29]: 1.02%
viability, T/C [30]: 1.42%
viability, T/C [31]: 0.41%
viability, T/C [32]: 0.46%
viability, T/C [33]: 0.55%
viability, T/C [34]: 0.59%
viability, T/C [35]: 0.61%
viability, T/C [36]: 0.95%

CC1COCCN1c1cc(C2(S(C)(=N)=O)CC2)nc(-c2ccnc3[nH]ccc23)n1 (stereo unspecified) + CN1CCN(c2cc(C(=O)Nc3cc4cc(-c5cnn(C)c5)ccc4cn3)ccn2)CC1
IC50 (second compound 0.0316 µM): 2160 nM
IC50 (second compound 0.1 µM): 1840 nM
IC50 (second compound 0.316 µM): < 31.6 nM
IC50 (second compound 1 µM): < 31.6 nM
IC50 (second compound 3.16 µM): < 31.6 nM
IC50 (second compound 10 µM): < 31.6 nM
viability, T/C [1]: 97.6%
viability, T/C [2]: 102%
viability, T/C [3]: 97.8%
viability, T/C [4]: 77.3%
viability, T/C [5]: 36.7%
viability, T/C [6]: 19.1%
viability, T/C [7]: 110%
viability, T/C [8]: 108%
viability, T/C [9]: 95.5%
viability, T/C [10]: 69.1%
viability, T/C [11]: 33.1%
viability, T/C [12]: 17.2%
viability, T/C [13]: 27%
viability, T/C [14]: 32%
viability, T/C [15]: 24.1%
viability, T/C [16]: 24.8%
viability, T/C [17]: 14.1%
viability, T/C [18]: 9.42%
viability, T/C [19]: 1.04%
viability, T/C [20]: 1.24%
viability, T/C [21]: 1.39%
viability, T/C [22]: 1.11%
viability, T/C [23]: 0.85%
viability, T/C [24]: 0.48%
viability, T/C [25]: 0.45%
viability, T/C [26]: 0.34%
viability, T/C [27]: 0.48%
viability, T/C [28]: 0.44%
viability, T/C [29]: 0.69%
viability, T/C [30]: 0.65%
viability, T/C [31]: 0.51%
viability, T/C [32]: 0.45%
viability, T/C [33]: 1.23%
viability, T/C [34]: 0.54%
viability, T/C [35]: 1.37%
viability, T/C [36]: 0.58%

NC(=O)C(=Cn1cnc(-c2cc(C(F)(F)F)cc(C(F)(F)F)c2)n1)c1cncnc1 + CN1CCN(c2cc(C(=O)Nc3cc4cc(-c5cnn(C)c5)ccc4cn3)ccn2)CC1
IC50 (second compound 0.0316 µM): 99.6 nM
IC50 (second compound 0.1 µM): 50.5 nM
IC50 (second compound 0.316 µM): < 9.49 nM
IC50 (second compound 1 µM): < 9.49 nM
IC50 (second compound 3.16 µM): < 9.49 nM
IC50 (second compound 10 µM): < 9.49 nM
viability, T/C (second compound 0.0316 µM, first compound 0.00949 µM): 81.1%
viability, T/C (second compound 0.0316 µM, first compound 0.03 µM): 76%
viability, T/C (second compound 0.0316 µM, first compound 0.0949 µM): 50.1%
viability, T/C (second compound 0.0316 µM, first compound 0.3 µM): 21.7%
viability, T/C (second compound 0.0316 µM, first compound 0.949 µM): 5.88%
viability, T/C (second compound 0.0316 µM, first compound 3 µM): 2%
viability, T/C (second compound 0.1 µM, first compound 0.00949 µM): 87.6%
viability, T/C (second compound 0.1 µM, first compound 0.03 µM): 63.4%
viability, T/C (second compound 0.1 µM, first compound 0.0949 µM): 33.6%
viability, T/C (second compound 0.1 µM, first compound 0.3 µM): 14.3%
viability, T/C (second compound 0.1 µM, first compound 0.949 µM): 3.11%
viability, T/C (second compound 0.1 µM, first compound 3 µM): 1.52%
viability, T/C (second compound 0.316 µM, first compound 0.00949 µM): 21.2%
viability, T/C (second compound 0.316 µM, first compound 0.03 µM): 15%
viability, T/C (second compound 0.316 µM, first compound 0.0949 µM): 8.59%
viability, T/C (second compound 0.316 µM, first compound 0.3 µM): 1.27%
viability, T/C (second compound 0.316 µM, first compound 0.949 µM): 1.18%
viability, T/C (second compound 0.316 µM, first compound 3 µM): 2%
viability, T/C (second compound 1 µM, first compound 0.00949 µM): 0.39%
viability, T/C (second compound 1 µM, first compound 0.03 µM): 0.58%
viability, T/C (second compound 1 µM, first compound 0.0949 µM): 1.29%
viability, T/C (second compound 1 µM, first compound 0.3 µM): 1.21%
viability, T/C (second compound 1 µM, first compound 0.949 µM): 2.26%
viability, T/C (second compound 1 µM, first compound 3 µM): 2.39%
viability, T/C (second compound 3.16 µM, first compound 0.00949 µM): 0.7%
viability, T/C (second compound 3.16 µM, first compound 0.03 µM): 1.97%
viability, T/C (second compound 3.16 µM, first compound 0.0949 µM): 1.72%
viability, T/C (second compound 3.16 µM, first compound 0.3 µM): 1.71%
viability, T/C (second compound 3.16 µM, first compound 0.949 µM): 1.82%
viability, T/C (second compound 3.16 µM, first compound 3 µM): 2.81%
viability, T/C (second compound 10 µM, first compound 0.00949 µM): 0.61%
viability, T/C (second compound 10 µM, first compound 0.03 µM): 0.97%
viability, T/C (second compound 10 µM, first compound 0.0949 µM): 1.5%
viability, T/C (second compound 10 µM, first compound 0.3 µM): 0.79%
viability, T/C (second compound 10 µM, first compound 0.949 µM): 0.88%
viability, T/C (second compound 10 µM, first compound 3 µM): 0.91%
